Entries after “also recorded” stand apart in the source; their conditions may differ. Where two headings read alike, the source gives them in different places. Each block holds one molecule with its values, some of them ahead of it.
Columns and labels:
[1] = test system: Hek-Blue, Raw-Blue, THP-1 cells; conditions: prior art section, cited from earlier work
[2] = test system: C57Bl/6 mice immunized with chicken ovalbumin (OVA); experiment: OVA immunization, adjuvant activity (anti-OVA total IgG); format: in vivo; conditions: for anti-OVA total IgG after prime immunization compared to MPLA-OVA immunized animals / anti-OVA total IgG after prime immunization compared to OVA-immunized control: 21 days post immunization
Procedure: (§1) The ability of FP11 and FP112 to induce immune responses in vivo was compared to MPLA by evaluating antibody production in C57Bl/6 mice immunized with chicken ovalbumin (OVA) as a model antigen. Has been first evaluated the toxicity of FPs in a pilot experiment in which mice were injected subcutaneously with 10 μg of the FP11 and FP112. […] Next, mice were immunized with the tested adjuvants mixed with ovalbumin (OVA). The induction of antibody was evaluated 21 days post immunization.

human TLR4 [3] = target: T1, human TLR4 (Homo sapiens, UniProt O00206+Q9Y6Y9); experiment: Inhibition of LPS-induced SEAP production in HEK-Blue hTLR4 cells (antagonism); format: cell-based
T1 construct: host or cells: HEK-Blue hTLR4 (HEK293-derived)

HEK-Blue Null cells = HEK-Blue Null cells SEAP reporter (lack the LPS receptors); format: cell-based, human
[4] = test system: IL-1α, IL-1β, IL-6, TNF-α and IFNβ; conditions: cited from earlier work
[5] = test system: Hek-Blue, Raw-Blue, THP-1 cells; experiment: In vitro tests on Hek-Blue, Raw-Blue and THP-1 cells (summary statements); format: cell-based
[6] = Pilot in vivo toxicity of adjuvants in mice; set-up: species or system C57Bl/6 mice; conditions: 10 μg subcutaneously, over 7 days
Procedure: as §1

RAW-Blue = experiment: MTT viability assay on RAW-Blue cells; format: cell-based; conditions: mouse macrophage line RAW-Blue
Procedure: (§2) The toxicity of the compounds was evaluated by MTT viability assay (3-(4,5-dimethylthiazol-2-yl)-2,5-diphenyltetrazolium bromide).

THP-1-X-Blue cells = experiment: MTT viability assay on differentiated THP-1-X-Blue cells; format: cell-based, human; conditions: THP-1-X-Blue macrophages; for cell viability at the highest concentration tested: 50 μM; for toxicity (MTT viability): 0.1-50 μM
Procedure: as §2
A preliminary test to investigate the toxicity of this functionalized compound was performed, even though without a triplicate.

NF-kB [7] = experiment: THP-1-X Blue macrophages, NF-kB/AP-1 SEAP reporter; format: cell-based, human
Procedure: (§3) THP-1-X BIue™ cell lines, monocytes differentiated into macrophages following treatment with PMA 100 ng/mL, and RAW-BIue™ were used. Similarly to HEK-Blue cells, THP-1 X-Blue and […] stably express the SEAP reporter gene, under the control of transcription factors NF-kB and AP-1. The cells were treated as previously described.
FP200 activity was then assessed on human monocytes cell line THP-1-X-Blues, described before. Cells were treated with compounds FP11, FP112, FP20, FP200 and FP21 in increasing concentrations (0.1, 1, 10, 20 μM) and using MPLA (0.1-1-10 μM) and S-LPS (100 ng/mL) as a reference and positive receptor activation control, respectively.
Compound FP207, functionalized with MPA, was tested in vitro on human THP-1-XBlue cells to evaluate the NF-kB activation.

human TLR2 = target: T2, human TLR2 (Homo sapiens, UniProt O60603); experiment: HEK-Blue hTLR2 SEAP reporter assay; format: cell-based; conditions: HEK-Blue hTLR2 cells, compounds 0.1-25 μM; PAM2CSK4 positive control (1 ng/mL)
T2 construct: host or cells: HEK-Blue hTLR2 (HEK reporter cell line)
Description: (§4) HEK-BIue™ hTLR4 and HEK-BIue™ hTLR2 (InvivoGen) are cell lines designed to study the activation of human TLR4 and TLR2 receptors, respectively, by monitoring the activation of transcription factors NF-kB and AP-1. Stimulation with TLR4 ligands (in the case of HEK-Blue hTLR4) or with TLR2 ligands (in the case of HEK-Blue hTLR2) activates NF-kB and AP-1, inducing the production and release of the SEAP reporter gene (phosphatase secreted embryonic alkaline) in the extracellular environment. The analysis of the reporter gene was performed using the QUANTI-Blue™ colorimetric assay (InvivoGen), a substrate of SEAP, which generates a chromogenic product whose absorbance is read at 630 nm. […] The molecules were subsequently tested on the HEK-Blue hTLR2 cell line with the aim of excluding the activation of this receptor. In this regard, HEK-Blue hTLR2 cells were treated with the same compounds and at the same concentrations as the tests conducted previously and the compound PAM2CSK4 was used as a positive control for TLR2 activation.

NF-kB [8] = experiment: RAW-Blue murine macrophages, NF-kB/AP-1 SEAP reporter; format: cell-based; conditions: RAW-blue line
Procedure: as §3

[9] = tumour-affected patients; cited from earlier work
Escherichia coli = conditions: one dose one day prior to microbial inoculation; cited from earlier work
[10] = test system: interleukin-6 (IL-6), interleukin-8 (IL-8) and TNF-α; conditions: murine macrophages and neutrophil granulocytes; cited from earlier work
TLR4 = conditions: both murine and human cells; cited from earlier work
human TLR4 [11] = target: T1, human TLR4; conditions: HEK-Blue hTLR4 cells, Experiment 2 of WO2019/092572; cited from earlier work
human TLR4 [12] = target: T1, human TLR4; experiment: HEK-Blue hTLR4 SEAP reporter assay (agonist activity, QUANTI-Blue); format: cell-based; conditions: HEK-Blue hTLR4 cells, 0.1-25 μM, 18 hours, normalized to LPS
Description: as §4, with “nm. The agonist activity of the molecules was tested by treating HEK-Blue hTLR4 cells for 18 hours with increasing concentrations of the compounds (0.1-1-10-25 μM) and using MPLA (0.1-1-10 μM) and S-LPS (100 ng/mL) as a reference and positive receptor activation control, respectively.” for “nm.”, “In this regard, HEK-Blue hTLR2 cells were treated with the same compounds and at the same concentrations as the tests conducted previously and the compound PAM2CSK4 was used as a positive control for TLR2 activation.” left out
The ability of FP molecules to activate human TLR4 was assessed using HEK-Blue hTLR4 cells. […]

T1 sequence (O00206 24-839): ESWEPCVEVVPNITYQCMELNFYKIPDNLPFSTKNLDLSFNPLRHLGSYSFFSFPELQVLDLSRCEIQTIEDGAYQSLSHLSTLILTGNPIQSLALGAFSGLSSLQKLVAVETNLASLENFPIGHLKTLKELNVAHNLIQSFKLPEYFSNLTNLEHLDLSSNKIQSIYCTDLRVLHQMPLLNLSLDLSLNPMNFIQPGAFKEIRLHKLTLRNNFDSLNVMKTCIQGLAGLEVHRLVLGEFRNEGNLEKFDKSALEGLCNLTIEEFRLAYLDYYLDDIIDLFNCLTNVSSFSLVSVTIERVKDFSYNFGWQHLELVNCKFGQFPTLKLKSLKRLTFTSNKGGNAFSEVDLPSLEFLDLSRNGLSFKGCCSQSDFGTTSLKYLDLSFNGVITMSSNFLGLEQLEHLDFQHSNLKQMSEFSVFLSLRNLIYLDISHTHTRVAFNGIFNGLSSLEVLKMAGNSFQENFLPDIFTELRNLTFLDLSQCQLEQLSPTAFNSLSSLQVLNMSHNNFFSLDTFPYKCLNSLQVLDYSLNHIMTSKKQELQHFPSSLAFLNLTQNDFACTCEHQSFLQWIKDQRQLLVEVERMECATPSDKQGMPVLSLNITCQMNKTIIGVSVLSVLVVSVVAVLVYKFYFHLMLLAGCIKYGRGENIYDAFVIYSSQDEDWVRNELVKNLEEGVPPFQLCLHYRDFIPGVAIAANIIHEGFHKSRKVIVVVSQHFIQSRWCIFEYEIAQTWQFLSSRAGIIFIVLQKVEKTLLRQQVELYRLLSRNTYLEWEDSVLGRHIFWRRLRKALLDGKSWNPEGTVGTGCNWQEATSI
T1 sequence (Q9Y6Y9 17-160 limits assumed): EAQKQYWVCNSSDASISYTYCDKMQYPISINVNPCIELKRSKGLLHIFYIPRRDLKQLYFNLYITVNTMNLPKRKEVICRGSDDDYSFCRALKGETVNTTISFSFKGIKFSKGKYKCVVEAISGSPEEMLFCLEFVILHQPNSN
T2 sequence (O60603 21-784): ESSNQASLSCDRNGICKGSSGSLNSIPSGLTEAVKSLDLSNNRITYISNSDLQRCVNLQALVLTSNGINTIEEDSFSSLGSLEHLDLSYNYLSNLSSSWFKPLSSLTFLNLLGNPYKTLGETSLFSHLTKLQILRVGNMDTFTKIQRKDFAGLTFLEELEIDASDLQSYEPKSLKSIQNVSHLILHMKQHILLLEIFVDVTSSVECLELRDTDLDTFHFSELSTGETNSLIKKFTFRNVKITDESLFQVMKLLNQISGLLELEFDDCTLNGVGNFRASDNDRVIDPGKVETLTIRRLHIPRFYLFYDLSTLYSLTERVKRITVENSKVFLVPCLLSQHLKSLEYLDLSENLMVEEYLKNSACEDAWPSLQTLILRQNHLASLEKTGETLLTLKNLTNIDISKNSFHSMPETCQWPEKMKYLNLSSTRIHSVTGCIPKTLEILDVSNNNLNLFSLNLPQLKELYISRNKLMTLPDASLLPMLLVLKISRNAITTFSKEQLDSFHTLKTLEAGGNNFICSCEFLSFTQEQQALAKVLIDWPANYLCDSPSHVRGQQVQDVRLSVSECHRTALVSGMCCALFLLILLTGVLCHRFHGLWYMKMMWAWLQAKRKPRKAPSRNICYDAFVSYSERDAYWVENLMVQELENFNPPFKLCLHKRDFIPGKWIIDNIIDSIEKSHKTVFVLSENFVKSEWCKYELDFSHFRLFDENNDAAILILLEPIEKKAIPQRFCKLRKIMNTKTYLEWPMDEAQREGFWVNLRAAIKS

Molecule: CCCCCCCCCCCC(=O)NC1C(OP(=O)(O)O)OC(CO)C(OC(=O)CCCCCCCCCCC)C1OC(=O)CCCCCCCCCCC (centres unmarked) [FP112]
pro-inflammatory activity ([1]; 10 μM): good pro-inflammatory activity
toxicity in vitro [1]: low toxicity
anti-OVA total IgG after prime immunization compared to MPLA-OVA immunized animals [2]: significantly lower levels
anti-OVA total IgG after prime immunization compared to OVA-immunized control [2]: marginally higher levels
ova-specific IgG levels after boost immunization ([2]; boost on day 22, examined 14 days later): higher than those in the FP11-immunized group
effectiveness/potency as vaccine adjuvant in vivo ([2]; compared to FP11 and MPLA): comparable to that of MPLA; also recorded: more effective adjuvant in vivo than FP11 and has a potency comparable or even greater than MPLA
inhibition of LPS-induced SEAP production (TLR4 antagonistic activity) (human TLR4 [3]): did not inhibit LPS-induced SEAP production
activity on HEK-Blue Null cells (HEK-Blue Null cells): lack of activity
release of proinflammatory cytokines [4]: able to stimulate the release of numerous proinflammatory cytokines
toxicity in vitro [5]: low toxicity
pro-inflammatory activity ([5]; 10 μM): good pro-inflammatory activy
adverse effect on mice (local response at injection site, weight, alertness) [6]: no collateral damage; also recorded: no obvious adverse effect

Molecule: CCCCCCCCCCCCCC(=O)NC1C(OC(=O)CCCCCCCCCCCCC)[C@H](OC(=O)CCCCCCCCCCCCC)C(CO)O[C@H]1OP(=O)(O)O (some centres unmarked) [FP11]
anti-OVA total IgG after prime immunization compared to MPLA-OVA immunized animals [2]: significantly lower levels
anti-OVA total IgG after prime immunization compared to OVA-immunized control [2]: marginally higher levels
inhibition of LPS-induced SEAP production (TLR4 antagonistic activity) (human TLR4 [3]): did not inhibit LPS-induced SEAP production
activity on HEK-Blue Null cells (HEK-Blue Null cells): lack of activity
adverse effect on mice (local response at injection site, weight, alertness) [6]: no obvious adverse effect

Molecule: CCCCCCCCCCCC(=O)NC1C(OC(=O)CCCCCCCCCCC)OC(CO)C(OP(=O)([O-])[O-])C1OC(=O)CCCCCCCCCCC.[Na+].[Na+] (centres unmarked) [FP20]
toxicity (MTT viability) (RAW-Blue; 50 μM): increase in the toxicity
cell viability at the highest concentration tested (THP-1-X-Blue cells): decrease in cell viability
toxicity (MTT viability) (THP-1-X-Blue cells): non-toxic
concentration from which the compounds activate significantly (NF-kB [7]): 10 µM
activation of TLR2 (SEAP) (human TLR2): did not produce any activation
lowest concentration tested at which the compounds are active (NF-kB [8]): 0.1 µM

Molecule: CCCCCCCCCCCCCC(=O)NC1C(OC(=O)CCCCCCCCCCCCC)OC(CO)C(OP(=O)([O-])[O-])C1OC(=O)CCCCCCCCCCCCC.[Na+].[Na+] (centres unmarked) [FP23]
toxicity (MTT viability) (RAW-Blue; 25 μM): show toxicity
toxicity (MTT viability) (RAW-Blue; 50 μM): increase in the toxicity
cell viability at the highest concentration tested (THP-1-X-Blue cells): decrease in cell viability
toxicity (MTT viability) (THP-1-X-Blue cells): non-toxic
activation of TLR2 (SEAP) (human TLR2): did not produce any activation
lowest concentration tested at which the compounds are active (NF-kB [8]): 0.1 µM

Molecule: CCCCCCCCCCC[C@@H](O)CC(=O)N[C@H]1[C@@H](OP(=O)(O)O)O[C@H](CO)[C@@H](OC(=O)C[C@H](O)CCCCCCCCCCC)[C@@H]1OC(=O)C[C@H](O)CCCCCCCCCCC [SDZ MRL 953]
granulocyte counts and serum cytokine levels [9]: increases granulocyte counts and serum levels of G-CSF and interleukin-6 (IL-6), but not of pro-inflammatory cytokines TNF-α, IL-1b, and IL-8
safety and tolerability in humans [9]: safe and of excellent tolerability
effect on curative effects of antibiotics (Escherichia coli): dramatically increased the curative effects of antibiotics administered
stimulation of release of inflammatory cytokines [10]: potent activity

Molecule: CCCCCCCCCCCCCC(=O)OC1OC(CO)C(OP(=O)([O-])[O-])C(OC(=O)CCCCCCCCCCCCC)C1NC(=O)CCCCCCCCCCC.[Na+].[Na+] (centres unmarked) [FP21]
toxicity (MTT viability) (RAW-Blue; 50 μM): increase in the toxicity
toxicity (MTT viability) (THP-1-X-Blue cells): non-toxic
concentration from which the compounds activate significantly (NF-kB [7]): 10 µM
activation of TLR2 (SEAP) (human TLR2): did not produce any activation
lowest concentration tested at which the compounds are active (NF-kB [8]): 0.1 µM

activation of TLR2 (SEAP) (human TLR2): strong activation of TLR2
Molecule: PAM2CSK4

Molecule: CCCCCCCCCCCC(=O)NC1C(OC(=O)CCCCCCCCC)OC(CO)C(OP(=O)([O-])[O-])C1OC(=O)CCCCCCCCC.[Na+].[Na+] (centres unmarked) [FP24]
toxicity (MTT viability) (RAW-Blue; 50 μM): increase in the toxicity
toxicity (MTT viability) (THP-1-X-Blue cells): non-toxic
concentration from which the compounds activate significantly (NF-kB [7]): 10 µM
activation of TLR2 (SEAP) (human TLR2): did not produce any activation
lowest concentration tested at which the compounds are active (NF-kB [8]): 0.1 µM

Molecule: CCCCCCCCCCCCCC(=O)OC(CCCCCCCCCCC)CC(=O)O[C@H]1[C@H](OP(=O)(O)O)[C@@H](CO)OC(O)[C@@H]1NC(=O)CC(O)CCCCCCCCCCC (some centres unmarked) [GLA60]
stimulation of TLR4-dependent production of cytokines TNF-α and IL-6 (TLR4): active

Molecule: CCCCCCCCCC(=O)NC1C(OC(=O)CCCCCCCCC)OC(CO)C(OP(=O)([O-])[O-])C1OC(=O)CCCCCCCCC.[Na+].[Na+] (centres unmarked) [FP22]
toxicity (MTT viability) (RAW-Blue; 50 μM): increase in the toxicity
toxicity (MTT viability) (THP-1-X-Blue cells): non-toxic

activation of TLR4 (SEAP release, NF-kB and AP-1) (human TLR4 [12]): inactive
Molecule: CCCCCCCCCCCCCC(=O)NC1[C@H](OP(=O)(O)O)OC(COP(=O)(O)O)[C@@H](OC(=O)CCCCCCCCCCCCC)[C@@H]1OC(=O)CCCCCCCCCCCCC (some centres unmarked) [FP111]
inhibition of LPS-induced SEAP production (TLR4 antagonistic activity) (human TLR4 [3]): did not inhibit LPS-induced SEAP production
TLR4 agonist activity (human TLR4 [11]): completely inactive
